# According to patent US20070269843A1, “Diagnostic Assays That Use Mycobacteriophages” (priority 2004, published 2007):
# “And” between values parts separate entries of the source, which are not always exact repeats. Equal entries are not always repeated. Structures can show the parent of a compound that is named as a salt. Where two headings read alike, the source gives them in different places.
# What was measured:
# [1] = cited from earlier work
# [2] = system: Mycobacterium tuberculosis ATCC 27294; assay: FPTB plaque assay with CB-18 present during infection (Example 2); type: cell-based; settings: for Plaque formation following infection in Tris buffer and no pre-culture / Plaque formation following overnight pre-culture in FPTB nutrient broth: duplicates a, b; for Concentration present during infection that does not interfere with the assay: M. tuberculosis ATCC 27294
# M. tuberculosis = assay: FPTB plaque assay after exposure to CB-18 with carry-over into the infection buffer (Example 3); type: cell-based, Mycobacterium tuberculosis; settings: 1 mM CB-18, 90 minutes at 37° C.; replicates 1-3, tubes a, b
# Description: To examine the effects of both exposing M. tuberculosis to CB-18, and having CB-18 carried over into the infection buffer, the following experiment was performed: A 0.5 MacFarland stock of M. tuberculosis was manufactured as described by Thornton, C. G., et al, Jour. Clin. Microbiol. 36:2004-2013 (1998), and a 0.5 ml portions were transferred to quadruplicate 50 ml conical tubes (FIG. 3). One pair of tubes simply contained 50 mM Tris-HCl pH 7.5 @ 25° C., 66 mM NaCl, and 0.025% NALC, while the other pair of tubes contained the same buffer supplemented with 1 mM CB-18. All tubes were incubated for 90 minutes at 37° C. and then diluted with sterile water to a final volume of 50 ml. In those tubes without CB-18 present, duplicate 250 μl portions were added directly to 1 ml of FPTB nutrient broth. From those tubes that contained CB-18, triplicate 250 μl portions were added to 50 mM Tris-HCl pH 7.5 @ 25° C., 66 mM NaCl, 2 mM CaCl2 buffer. All tubes were then immediately subjected to analysis using the FPTB plaque assay (i.e., the plaque assay was performed without pre-culture).
# [3] = system: M. tuberculosis type strain ATCC 27294; settings: cited from earlier work
# [4] = system: Mycobacterium tuberculosis ATCC 27294; assay: FASTPlaqueTB (FPTB) plaque assay after timed exposure of M. tuberculosis to CB-18 (Example 1); type: cell-based; settings: for Plaque formation following infection in Tris buffer and no pre-culture / Plaque formation following overnight pre-culture in FPTB nutrient broth: duplicates a, b
# Description: In an effort to establish the effect of exposure to CB-18 on the M. tuberculosis type strain ATCC 27294, and any relationship of such an effect to time, the following experiment was performed using the FASTPlaqueTB™ (FPTB) assay manufactured by Biotec Laboratories Ltd (Ipswich, Suffolk, U.K.): A 0.5 MacFarland stock of M. tuberculosis was manufactured as described by Thornton, C. G., et al, Jour. Clin. Microbiol. 36:2004-2013 (1998), and a 1 ml portion were transferred to a 50 ml conical tubes containing 50 mM Tris-HCl pH 7.5 @ 25° C., 66 mM NaCl, 1 mM CB-18, and 0.025% N-acetyl-L-cysteine (NALC). From this tube was taken duplicate 500 μl aliquots at 0, 30, 60, 120, and 180 minutes and immediately serially diluted 400-fold to form two dilution series. In the first series (FIG. 1a), serial dilutions were made in nutrient broth (i.e., FPTB broth) provided by the manufacturer. In the second series (FIG. 1b), serial dilutions were made in a 50 mM Tris-HCl pH 7.5 @ 25° C., 66 mM NaCl buffer that had been supplemented with calcium chloride (CaCl2) to a final concentration of 2 mM.
# The first series of time point-dilutions were then incubated at 37° C. overnight in FPTB broth prior to being assayed with the FPTB plaque assay. The second series of time point-dilutions were immediately subjected to analysis using the FPTB plaque assay.
# [5] = system: mycobacteriophage D-29 in M. tuberculosis; settings: cited from earlier work
# [6] = 1 mM CB-18, time of exposure 0 min
# [7] = 1 mM CB-18, time of exposure 30 min
# [8] = 1 mM CB-18, time of exposure 60 min
# [9] = 1 mM CB-18, time of exposure 120 min
# [10] = 1 mM CB-18, time of exposure 180 min
compound,measurement,setting,value
"NC(=O)CNCCS(=O)(=O)O [ACES, N-(2-Acetamido)-2-aminoethanesulfonic acid]",pKa,[1],6.78
"NC(=O)CN(CC(=O)O)CC(=O)O [ADA, N-(2-Acetamido)iminodiacetic acid]",pKa,[1],6.59
"CCCCCCCCCCCCCCCCCC[N+](C)(C)CCCC(=O)[O-] [CB-18, N-(3-carboxypropyl)-N,N-dimethyl-1-octadecanaminium, inner salt]",Plaque formation following infection in Tris buffer and no pre-culture,[2]; CB-18 5 μg/ml present during infection,171 and 191
same,Plaque formation following overnight pre-culture in FPTB nutrient broth,[2]; CB-18 5 μg/ml,>300
same,Plaque formation following infection in Tris buffer and no pre-culture,[2]; CB-18 10 μg/ml present during infection,204 and 186
same,Plaque formation following overnight pre-culture in FPTB nutrient broth,[2]; CB-18 10 μg/ml,>300
same,Plaque formation following infection in Tris buffer and no pre-culture,[2]; CB-18 20 μg/ml present during infection,181 and 198
same,Plaque formation following overnight pre-culture in FPTB nutrient broth,[2]; CB-18 20 μg/ml,>300
same,Plaque formation following overnight pre-culture in FPTB nutrient broth,[2]; CB-18 40 μg/ml,>300
same,Concentration present during infection that does not interfere with the assay,[2],≤ 20 µg/mL
same,Concentration present during infection that does not interfere with the assay,[2]; conversion of 20 μg/ml,≤ 52 µM
same,"Plaque formation following processing in CB-18, no pre-culture, and infection in Tris-CaCl2 buffer",M. tuberculosis,>300
same,Growth characteristics in culture media,[3]; CB-18 present at 20 μg/ml in the culture media,significantly affected
same,Tuberculocidal activity,[3]; time-dependent killing,has tuberculocidal activity
same,Plaque formation following infection in Tris buffer and no pre-culture,[4]; [6],132 and 121
same,Plaque formation following overnight pre-culture in FPTB nutrient broth,[4]; [6],>300
same,Plaque formation following infection in Tris buffer and no pre-culture,[4]; [7],145 and 167
same,Plaque formation following overnight pre-culture in FPTB nutrient broth,[4]; [7],>300
same,Plaque formation following infection in Tris buffer and no pre-culture,[4]; [8],100 and 90
same,Plaque formation following overnight pre-culture in FPTB nutrient broth,[4]; [8],>300
same,Plaque formation following infection in Tris buffer and no pre-culture,[4]; [9],155 and 140
same,Plaque formation following overnight pre-culture in FPTB nutrient broth,[4]; [9],>300
same,Plaque formation following infection in Tris buffer and no pre-culture,[4]; [10],213 and 221
same,Plaque formation following overnight pre-culture in FPTB nutrient broth,[4]; [10],>300
same,Effect of exposure on D-29 mycobacteriophage plaque assay,"[4]; 1 mM CB-18 for 30, 60, 120, and 180 minutes",no deleterious effects
"O=S(=O)(O)CCCCN1CCN(CCO)CC1 [HEPBS, N-(2-Hydroxyethyl)piperazine-N′-(4-butanesulfonic acid)]",pKa,[1],8.30
"O=S(=O)(O)CCCCN1CCOCC1 [MOBS, 4-(N-Morpholino)butanesulfonic acid]",pKa,[1],7.60
"O=S(=O)(O)CCN1CCN(CCS(=O)(=O)O)CC1 [PIPES, piperazine-1,4-bis(2-ethanesulfonic acid)]",pKa,[1],6.76
"O=S(=O)(O)CC(O)CN1CCN(CC(O)CS(=O)(=O)O)CC1 (stereo not shown) [POPSO, piperazine-N,N′-bis(2-hydroxypropanesulfonic acid)]",pKa,[1],7.80
CCCCCCCC/C=C\CCCCCCCC(=O)OCCOCC(OCCO)C1OCC(OCCO)C1OCCO (stereo not shown) [Tween 80],Concentration above which propagation of mycobacteriophage D-29 in M. tuberculosis is interfered with,[5],above 0.0012%
same,Concentration above which propagation of mycobacteriophage D-29 in M. tuberculosis is interfered with,[5]; printed as conversion of […],> 1 EM
